Laboratory results published in patent publication US20040268437A1, “Method for biosynthesizing the serotonin derivatives in plants” (CHONNAM NATIONAL UNIVERSITY, priority 2003, published 2004).
Entries after “also recorded” stand apart in the source; their conditions may differ.

Key:
hot pepper THT enzyme = test: In vitro enzyme reaction of purified hot pepper THT with serotonin, product by HPLC; assay type: biochemical, hot pepper (Capsicum annuum)
Experimental: In order to confirm whether hot pepper THT enzyme could use serotonin as an amine substrate, hot pepper THT protein, in which 6 histidines were attached on carboxy-terminal, was purified by affinity chromatography (Back et al., Plant Cell Physiol. 42, 475-481, 2001) and used for the experiment. Particularly, 1 μg of the purified hot pepper THT enzyme, 1 mM of feruloyl-CoA (Sigma-Aldrich, Korea) and 10 mM of serotonin (Sigma-Aldrich, Korea) were mixed together, followed by an enzyme reaction at 30° C. for 10 minutes. Upon completing the reaction, the reaction product was analyzed by HPLC.

[1] = tested on: Hot pepper (Variety: Pungcheon); test: Serotonin sprayed on hot pepper sarcocarps; serotonin derivative content by HPLC; assay type: in vivo
Experimental: Hot pepper (Variety: Pungcheon) was treated with serotonin to investigate biosynthesis of serotonin derivatives.
Serotonin solution (prepared by dissolving serotonin in water to make 1 mM concentration) was sprayed on sarcocarps of hot pepper at the rate of 10,000 L/ha. 72 hours after spraying, sarcocarps were taken to investigate the content of serotonin derivatives, for which the same method in the Example 1 was used. Sarcocarps of hot pepper not treated with serotonin were used as a control.

[2] = tested on: Hot pepper (Variety: Pungcheon); test: Soil treatment of hot pepper with inducers; serotonin derivative content in sarcocarps by HPLC; assay type: in vivo
Experimental: Hot pepper (Variety: Pungcheon) was treated with inducers for serotonin derivative biosynthesis, followed by an examination of biosynthesis of serotonin derivatives.
(§1) Particularly, inducers for serotonin derivative biosynthesis were prepared by dissolving tyramine, tryptamine, cinnamic acid, coumaric acid, caffeic acid and ferulic acid in water respectively to make each concentration 100 μM. And then the soil where rice plants (about 40 days after heading) had been growing was treated once with each inducer for serotonin derivative biosynthesis at the rate of 300,000 L/ha, followed by further cultivation for 20 days.
The ripe sarcocarps of hot peppers were obtained to investigate the content of serotonin derivatives by the same method as used in the above Example <1-1>. Control group hot pepper was cultivated under the same condition as the experimental group hot pepper except the treatment with inducers for serotonin derivative biosynthesis.

potato THT = settings: coumaroyl-CoA used as a substrate instead of feruloyl-CoA; cited from earlier work
[3] = tested on: transgenic rice plants over-expressing THT; test: Transgenic rice grown in medium with tyramine or coumaric acid; content in leaves and stems; assay type: in vivo; settings: for Coumaroyl serotonin / Feruloyl serotonin / Total content of serotonin derivatives: medium with 50 μM tyramine, 2 weeks
[4] = tested on: Rice plants (Variety: Nakdong); test: Soil treatment of rice with inducers; serotonin derivative content in seeds by HPLC; assay type: in vivo
Experimental: Rice plants (Variety: Nakdong) having been cultivated in the rice field were treated with inducers for serotonin derivative biosynthesis and then biosynthesis of the serotonin derivatives was investigated.
as §1, with “Inducers for serotonin” for “Particularly, inducers for serotonin”, “ferulic acid (Sigma-Aldrich, Korea) in water” for “ferulic acid in water”
As a control group, rice plant which had been cultivated under the same conditions except the treatment with inducers for serotonin derivative biosynthesis was used.
After harvesting rice, seeds of the rice were peeled to obtain brown rice. N-(hydroxycinnamoyl)-amines were extracted from 1 g of the brown rice by known method (Ishihara et al., Biosci. Biotechnol. Biochem. 64, 1025-1031, 2000), and then, HPLC was performed.
Coumaroylserotonin and feruloylserotonin included in the extract of seeds of rice, treated with inducers for serotonin derivative biosynthesis, were quantified by HPLC using a standard substance synthesized by a well-known method (Villegas & Brodelius, Physiol. Plant. 78, 414-420, 1990).

[5] = tested on: wild type control rice plants; test: Wild-type control rice grown in medium with tyramine; content in leaves and stems; assay type: in vivo; settings: Wild-type control (W); medium with 50 μM tyramine, 2 weeks
Experimental: (§2) It was investigated whether serotonin derivatives was biosynthesized in transgenic rice plants over-expressing THT when cultivated in a medium supplemented with serotonin inducers, tyramine or coumaric acid. T2 generations of the transgenic rice seeds were sown on MS medium (Duchefa Biochemie, Netherlands) supplemented with 50 μM of tyramine or coumaric acid, substrates of hot pepper THT enzyme, which were then further cultured in a sterilized condition with 12 hour light and 12 hour dark cycle. 2 weeks later, hydroxycinnamoyl amines were extracted from leaves of T2 generations of transgenic rice plants and wild type control rice plants, respectively, according to the same procedure as used in the above Example <1-1>, then, HPLC was performed for analysis.

[6] = tested on: recombinant hot pepper THT; settings: amine substrates; cited from earlier work
transgenic control rice = test: Transgenic control rice (pGA1611 vector without THT gene) grown in medium with tyramine; content in leaves and stems; assay type: in vivo; settings: Transgenic control (TC); medium with 50 μM tyramine, 2 weeks
Experimental: In the meantime, transgenic control rice was prepared by transfecting rice plant with pGA1611 vector without hot pepper THT gene, and other preparation procedures for a control were the same as for an experimental group.
as §2

[7] = tested on: transgenic rice plants (T14) over-expressing THT; test: Soil treatment of transgenic rice T14 with inducers; serotonin derivative content in seeds; assay type: in vivo
Experimental: Among T2 generations of transgenic rice plants, T14 was transplanted in the soil, to which inducers for serotonin derivative biosynthesis were treated. After cultivation, the contents of serotonin derivatives in seeds of the transgenic rice plants were investigated.
As inducers for serotonin derivative biosynthesis, tyramine, tryptamine, cinnamic acid, coumaric acid, caffeic acid and ferulic acid were used. Precisely, the inducers for serotonin derivative biosynthesis were dissolved in water, making each concentration 100 μM. Then, the solutions were added at the rate of 300,000 L/ha, to the soil where rice plants (about 40 days after heading) were growing. The plants were cultivated for 20 more days.
The seeds of the plants cultivated above were collected, and the content of serotonin derivatives in them was investigated with the same method as used in the Example <1-1>, which was compared with that in seeds of wild type control rice plants.

[8] = sarcocarps of hot pepper, 1 mM serotonin sprayed, 10,000 L/ha, 72 hours
[9] = inducer 100 μM to soil, 300,000 L/ha, 20 days
[10] = Mean of transgenic rice lines T9-T17
[11] = seeds of transgenic rice T14, inducer 100 μM to soil, 300,000 L/ha, 20 days

With `NCCc1c[nH]c2ccc(O)cc12` [Serotonin, serotonin] as the molecule, how does the “Serotonin used as amine substrate, product feruloylserotonin” value (hot pepper THT enzyme; 1 μg THT, 1 mM feruloyl-CoA, 10 mM serotonin, 30° C., 10 minutes) read?
The value was “uses serotonin as an amine substrate; also recorded: biosynthesis of feruloylserotonin was confirmed”.

And the “Serotonin used as amine substrate, product coumaroylserotonin” value (hot pepper THT enzyme; coumaroyl-CoA and serotonin as substrates (not shown))?
The value was “synthesized coumaroylserotonin; also recorded: biosynthesis of coumaroylserotonin by hot pepper THT enzyme was also confirmed”.

What about the Serotonin derivatives detected ([1]; sarcocarps of hot pepper treated with serotonin, in words) of the same molecule?
Its Serotonin derivatives detected is “a large amount; also recorded: detected a lot”.

And the “Content of serotonin derivatives: Coumaroyl Serotonin” value [1, 8]?
The value was 1538 ng/1 g sarcocarps.

And the “Content of serotonin derivatives: Feruloyl serotonin” value [1, 8]?
Its value is 1028 ng/1 g sarcocarps.

What about the “Content of serotonin derivatives: Total content” value [1, 8] of the same molecule?
The value was 2566 ng/1 g sarcocarps.

Which results are given for `NCCc1ccc(O)cc1` [Tyramine, tyramine]?
Rank of inducers by serotonin derivatives produced ([2]; in words): third most; Content of serotonin derivatives: Coumaroyl Serotonin [2, 9]: 150 ng/1 g sarcocarps; Content of serotonin derivatives: Feruloyl serotonin [2, 9]: 210 ng/1 g sarcocarps; Content of serotonin derivatives: Total content [2, 9]: 360 ng/1 g sarcocarps; Increase of substrate specificity to tyramine (potato THT): more than 10 times; Coumaroyl serotonin [3, 10]: 78 μg/g leaves and stems; Feruloyl serotonin [3, 10]: 96 μg/g leaves and stems; Total content of serotonin derivatives [3, 10]: 174 μg/g leaves and stems; Coumaroyl serotonin ([3]; Transgenic rice T9): 24 μg/g leaves and stems; Feruloyl serotonin ([3]; Transgenic rice T9): 24 μg/g leaves and stems; Total content of serotonin derivatives ([3]; Transgenic rice T9): 48 μg/g leaves and stems; Coumaroyl serotonin ([3]; Transgenic rice T10): 86 μg/g leaves and stems; Feruloyl serotonin ([3]; Transgenic rice T10): 114 μg/g leaves and stems; Total content of serotonin derivatives ([3]; Transgenic rice T10): 200 μg/g leaves and stems; Coumaroyl serotonin ([3]; Transgenic rice T13): 224 μg/g leaves and stems; Feruloyl serotonin ([3]; Transgenic rice T13): 200 μg/g leaves and stems; Total content of serotonin derivatives ([3]; Transgenic rice T13): 424 μg/g leaves and stems; Coumaroyl serotonin ([3]; Transgenic rice T14): 46 μg/g leaves and stems; Feruloyl serotonin ([3]; Transgenic rice T14): 78 μg/g leaves and stems; Total content of serotonin derivatives ([3]; Transgenic rice T14): 124 μg/g leaves and stems; Coumaroyl serotonin ([3]; Transgenic rice T16): 50 μg/g leaves and stems; Feruloyl serotonin ([3]; Transgenic rice T16): 70 μg/g leaves and stems; Total content of serotonin derivatives ([3]; Transgenic rice T16): 120 μg/g leaves and stems; Coumaroyl serotonin ([3]; Transgenic rice T17): 36 μg/g leaves and stems; Feruloyl serotonin ([3]; Transgenic rice T17): 92 μg/g leaves and stems; Total content of serotonin derivatives ([3]; Transgenic rice T17): 128 μg/g leaves and stems; Coumaroyltyramine and feruloyltyramine in the extract ([3]; transgenic rice in medium with 50 μM tyramine or coumaric acid, HPLC): neither coumaroyltyramine nor feruloyltyramine; Rank of inducers by serotonin derivatives produced ([4]; in words): second most; Content of serotonin derivatives: Coumaroyl Serotonin [4, 9]: 19 ng/1 g seed; Content of serotonin derivatives: Feruloyl serotonin [4, 9]: 54 ng/1 g seed; Content of serotonin derivatives: Total content [4, 9]: 73 ng/1 g seed; Coumaroyl serotonin [5]: 0 μg/g leaves and stems; Feruloyl serotonin [5]: 1 μg/g leaves and stems; Total content of serotonin derivatives [5]: 1 μg/g leaves and stems; Maximum reaction velocity (Vmax) relative to octopamine [6]: 1.5 fold; Coumaroyl serotonin (transgenic control rice): 0 μg/g leaves and stems; Feruloyl serotonin (transgenic control rice): 1 μg/g leaves and stems; Total content of serotonin derivatives (transgenic control rice): 1 μg/g leaves and stems; Content of serotonin derivative: Coumaroyl serotonin [7, 11]: 314 ng/g seeds; Content of serotonin derivative: Feruloyl serotonin [7, 11]: 684 ng/g seeds; Content of serotonin derivative: Total content [7, 11]: 998 ng/g seeds; Rank of inducers by content of serotonin derivatives ([7]; seeds of transgenic rice plants, in words): the highest
